# Earlier results as cited in patent US20210205199A1, “Dermatological Cosmetic Composition Comprising an SDKP Peptide or an Analog Thereof” (RPM Dermatologie, priority 2016, published 2021).
# Conditions: result in words; background
substance,measurement,value
acetyl-serine-aspartic acid-lysine-proline-OH [Ac-SDKP-OH],Sensitivity to enzymatic hydrolysis,very sensitive to enzymatic hydrolysis
same,Stability to hydrolysis,hydrolyzes very easily
